What all share (assay type): cell-based
Assay [1] concerns E. faecalis. The experiment in a line: MIC susceptibility testing, E. faecalis. How it is done:
(§1) Susceptibility testing for all aerobic organisms with the exception of Streptococcus pneumoniae was performed by two-fold serial antibiotic dilutions in Mueller-Hinton Broth supplemented with 50 μg/ml Ca^2+ unless otherwise noted. Susceptibility testing for S. pneumoniae was performed by two-fold serial antibiotic dilutions in Brain-Heart-Infusion Broth supplemented with 50 μg/ml Ca^2+ unless otherwise noted. Actively growing broth cultures were diluted to contain […] by adjusting to an OD600 of 0.2-0.3. They were then diluted a further 1:100 in fresh sterile broth. The assays were performed in duplicate in sterile 96-well microtitre plates in a total volume of 200 μl (160 μl broth, 20 μl antimicrobial agent, 20 μl inoculum) in a concentration range from 64 μg/ml to 0.06 μg/ml. […] Clinical isolates of Clostridium difficile were tested in Wilkins-Chalgren Anaerobe Agar under anaerobic conditions. In all cases, vancomycin was used as a reference antibiotic

Assay [2] relates to S. salivarius. The experiment in a line: MIC susceptibility testing, S. salivarius. Conditions: S. salivarius GRL05064; Viridans streptococci; Table 3. How it is done:
as §1

For assay [3], the system named is S. acidominimus. The experiment in a line: MIC susceptibility testing, S. acidominimus. Conditions: S. acidominimus 7862865; Viridans streptococci; Table 3. How it is done: as §1
For assay [4], the system named is E. coli. In words: MIC against intestinal flora organisms, E. coli. How it is done: as §1
The test system of assay [5] is Bifidobacterium longum. In words: MIC against intestinal flora organisms, Bifidobacterium longum. The following applies: Bifidobacterium longum NCTC 11818; Table 5.

Each structure is given as a SMILES string. Converted amounts (≈) assume the structure as drawn. A value given as a limit tells only on which side of the number the result lay.

A word on the MIC: it is the smallest concentration in the dilution series that meets the test's criterion for growth inhibition. As to `CCC(C)[C@@H]1NC(=O)[C@H](C(C)C)NC(=O)[C@H]2NC(=O)CNC(=O)[C@@H]3CS[C@@H](C)[C@@H](NC(=O)[C@H]4CSC[C@H](N)C(=O)N[C@@H](CO)C(=O)NCC(=O)N[C@@H](Cc5c[nH]c6ccccc56)C(=O)N[C@@H](C(C)C)C(=O)N4)C(=O)N[C@@H](CC(C)C)C(=O)N[C@@H](C(=O)N[C@@H](C(C)CC)C(=O)N[C@@H](CCC(=O)O)C(=O)N3)[C@H](C)SC[C@H](NC1=O)C(=O)N[C@@H](C)C(=O)N[C@H](C(=O)NCCO)C[S+]([O-])[C@H]2C` (some centres unmarked) [Compound III, Actagardine N-[2-ethanolamine]monocarboxamide], the MIC in assay [1] (E. faecalis 29212, Table 2) turned out to be 4 µg/mL (≈ 2.07 µM); in assay [1] (E. faecalis 7754422, Vancomycin sensitive enterococci, Table 3), 8 µg/mL (≈ 4.14 µM); in assay [1] (E. faecalis GRL05023, Vancomycin sensitive enterococci, Table 3), 8 µg/mL (≈ 4.14 µM); in assay [1] (E. faecalis GRL05024, Vancomycin sensitive enterococci, Table 3), 8 µg/mL (≈ 4.14 µM); in assay [1] (E. faecalis GRL05026, Vancomycin sensitive enterococci, Table 3), 8 µg/mL (≈ 4.14 µM); in assay [1] (E. faecalis GRL05027, Vancomycin sensitive enterococci, Table 3) it was 8 µg/mL (≈ 4.14 µM). The MIC turned out to be 4 µg/mL (≈ 2.07 µM) in assay [1] (E. faecalis GRL05029, Vancomycin sensitive enterococci, Table 3); 4 µg/mL (≈ 2.07 µM) in assay [1] (E. faecalis GRL05030, Vancomycin sensitive enterococci, Table 3); 1 µg/mL (≈ 0.517 µM) in assay [2]; 4 µg/mL (≈ 2.07 µM) in assay [3]. The “Minimal Inhibitory Concentration (MIC)” value in assay [4] (E. coli ATCC 25922, Table 5) is over 64 µg/mL; in assay [4] (E. coli DC2 (membrane more susceptible), Table 5, first line) it was over 64 µg/mL; in assay [4] (E. coli DC2 (membrane more susceptible), Table 5, second line), over 64 µg/mL; in assay [5], 32 µg/mL.

Values taken from patent US8329644B2, “Lantibiotic-based compounds having antimicrobial activity” (Novacta Biosystems Limited, priority 2007, dated 2012).
